Structures can show the parent of a compound that is named as a salt.
Key:
[1] = biological target: T1, NLRP3 inflammasome (Homo sapiens, UniProt Q96P20); assay: In vitro IL-1β production test (PMA-differentiated THP-1 cells, Nigericin stimulation, AlphaLISA); format: cell-based; conditions: inhibition of IL-1β production; THP-1 cells differentiated with 200 nM PMA; 0.015 mM Nigericin; 2 hours
T1 construct: endogenous in cells; host or cells: THP-1 (human monocyte-derived), PMA-differentiated, Nigericin-stimulated
T1 sequence (Q96P20 whole entry): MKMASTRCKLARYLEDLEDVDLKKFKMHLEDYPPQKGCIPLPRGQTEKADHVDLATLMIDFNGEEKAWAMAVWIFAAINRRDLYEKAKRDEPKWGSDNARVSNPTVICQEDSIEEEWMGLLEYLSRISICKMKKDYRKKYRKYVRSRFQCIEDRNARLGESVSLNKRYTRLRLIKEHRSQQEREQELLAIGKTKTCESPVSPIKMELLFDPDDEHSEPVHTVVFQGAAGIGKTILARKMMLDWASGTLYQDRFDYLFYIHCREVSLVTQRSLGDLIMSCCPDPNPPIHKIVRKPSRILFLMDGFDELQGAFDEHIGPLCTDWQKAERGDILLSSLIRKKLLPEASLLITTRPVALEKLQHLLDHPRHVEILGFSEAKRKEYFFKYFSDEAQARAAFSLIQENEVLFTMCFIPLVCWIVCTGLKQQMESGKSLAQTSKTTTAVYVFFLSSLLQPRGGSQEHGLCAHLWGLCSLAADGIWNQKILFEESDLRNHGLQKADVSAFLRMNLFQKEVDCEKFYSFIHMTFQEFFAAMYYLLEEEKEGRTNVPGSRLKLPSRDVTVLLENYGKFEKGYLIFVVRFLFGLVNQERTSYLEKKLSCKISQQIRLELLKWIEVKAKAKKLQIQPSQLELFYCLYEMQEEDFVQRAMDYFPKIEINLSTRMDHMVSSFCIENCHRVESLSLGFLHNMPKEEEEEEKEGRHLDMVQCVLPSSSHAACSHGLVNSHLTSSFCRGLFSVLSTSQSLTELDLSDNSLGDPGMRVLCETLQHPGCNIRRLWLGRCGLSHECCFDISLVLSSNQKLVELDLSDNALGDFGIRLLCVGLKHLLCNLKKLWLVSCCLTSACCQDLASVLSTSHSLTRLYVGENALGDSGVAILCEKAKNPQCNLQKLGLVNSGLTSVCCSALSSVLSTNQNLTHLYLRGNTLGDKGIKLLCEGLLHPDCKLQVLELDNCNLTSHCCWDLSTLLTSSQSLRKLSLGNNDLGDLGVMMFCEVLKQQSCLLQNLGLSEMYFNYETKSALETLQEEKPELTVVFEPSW
In short: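 THP-1 cells were differentiated one day with 200 nM PMA, then given serum-free medium with 0.015 mM nigericin plus compound for 2 h. Supernatant IL-1β was measured by AlphaLISA, with nigericin alone as 0% and unstimulated as 100% inhibition. IC50 came from logistic sigmoid fitting.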

[2] = Pharmacokinetics test in mice (plasma and brain concentration, LC/MS/MS); format: in vivo; conditions: mouse; male BALB/c mice; oral 10 mg/kg; two hours after administration; concentration in brain homogenate standardized with concentration in plasma
Description: Two hours after oral administration of the test compound (10 mg/kg) to male BALB/c mice, blood was collected from the posterior vena cava under isoflurane anesthesia, and plasma was obtained by centrifugation. In addition, the brain was collected after euthanasia by exsanguination, and distilled water was added to the obtained brain sample in an amount four times the wet weight of the brain to prepare a 20% homogenate. The compound concentrations in the obtained plasma and brain homogenate were measured by LC/MS/MS. The central transfer parameter Kp, brain was calculated by standardizing the concentration in the brain homogenate with the concentration in plasma. In the table, Ex indicates the example number. […].

## Cc1cc(Cl)cc(O)c1-c1cc2c(F)cn([C@H]3C[C@@](C)(O)C3)c2nn1 [Example 27, 5-chloro-2-{5-fluoro-7-[(1s,3s)-3-hydroxy-3-methylcyclobutyl]-7H-pyrrolo[2,3-c]pyridazin-3-yl}-3-methylphenol]
[1]
  IC50: 25.6 nM
[2]
  Kp at 2 h: 0.92

## Cc1cc(C(F)(F)F)cc(O)c1-c1cc2c(C)cn([C@H]3C[C@@](C)(O)C3)c2nn1 [Example 4, 2-{7-[(1s,3s)-3-hydroxy-3-methylcyclobutyl]-5-methyl-7H-pyrrolo[2,3-c]pyridazin-3-yl}-3-methyl-5-(trifluoromethyl)phenol]
[1]
  IC50: 19.8 nM
[2]
  Kp at 2 h: 0.65

## Cc1cc(C(F)(F)F)cc(O)c1-c1cc2c(OC(F)F)cn([C@H]3C[C@@](C)(O)C3)c2nn1 [Example 21, 2-{5-(difluoromethoxy)-7-[(1s,3s)-3-hydroxy-3-methylcyclobutyl]-7H-pyrrolo[2,3-c]pyridazin-3-yl}-3-methyl-5-(trifluoromethyl)phenol]
[1]
  IC50: 19.8 nM
[2]
  Kp at 2 h: 0.83

## Cc1cc(C(F)(F)F)cc(O)c1-c1cc2c(F)cn([C@H]3C[C@@](C)(O)C3)c2nn1 [Example 5, 2-{5-fluoro-7-[(1s,3s)-3-hydroxy-3-methylcyclobutyl]-7H-pyrrolo[2,3-c]pyridazin-3-yl}-3-methyl-5-(trifluoromethyl)phenol]
[1]
  IC50: 31.3 nM
[2]
  Kp at 2 h: 1.68

## Cc1cc(C(F)(F)F)cc(O)c1-c1cc2ccn([C@H]3C[C@@](C)(O)C3)c2nn1 [Example 3, 2-{7-[(1s,3s)-3-hydroxy-3-methylcyclobutyl]-7H-pyrrolo[2,3-c]pyridazin-3-yl}-3-methyl-5-(trifluoromethyl)phenol]
[1]
  IC50: 52.5 nM
[2]
  Kp at 2 h: 1.1

## COc1cn([C@H]2C[C@@](C)(O)C2)c2nnc(-c3c(C)cc(C(F)(F)F)cc3O)cc12 [Example 10, 2-{7-[(1s,3s)-3-hydroxy-3-methylcyclobutyl]-5-methoxy-7H-pyrrolo[2,3-c]pyridazin-3-yl}-3-methyl-5-(trifluoromethyl)phenol]
[1]
  IC50: 23.7 nM
[2]
  Kp at 2 h: 0.7

## Cc1cc(C(F)(F)F)cc(O)c1-c1cc2c(nn1)N([C@@H]1CCCN(C3CCOC3)C1)CC2 (mixture of isomers) [Example 57, 3-methyl-2-{7-[(3R)-1-(tetrahydrofuran-3-yl)piperidin-3-yl]-6,7-dihydro-5H-pyrrolo[2,3-c]pyridazin-3-yl}-5-(trifluoromethyl)phenol]
[1]
  IC50: 57.2 nM

## CCN1CCC[C@@H](n2cc(C)c3cc(-c4c(C)cc(C(F)(F)F)cc4O)nnc32)C1 [Example 20, 2-{7-[(3R)-1-ethylpiperidin-3-yl]-5-methyl-7H-pyrrolo[2,3-c]pyridazin-3-yl}-3-methyl-5-(trifluoromethyl)phenol]
[1]
  IC50: 8.19 nM

## Cc1cc(C(F)(F)F)cc(O)c1-c1cc2c(nn1)N([C@H]1C[C@@](C)(O)C1)CC2 [Example 40, 2-{7-[(1s,3s)-3-hydroxy-3-methylcyclobutyl]-6,7-dihydro-5H-pyrrolo[2,3-c]pyridazin-3-yl}-3-methyl-5-(trifluoromethyl)phenol monohydrochloride]
[1]
  IC50: 162 nM

## CCN1CC2(O)CC(n3cc(C)c4cc(-c5c(C)cc(C(F)(F)F)cc5O)nnc43)(C1)C2 [Example 75, 3-ethyl-5-{3-[2-hydroxy-6-methyl-4-(trifluoromethyl)phenyl]-5-methyl-7H-pyrrolo[2,3-c]pyridazin-7-yl}-3-azabicyclo[3.1.1]heptan-1-ol]
[1]
  IC50: 98.4 nM

## Cc1cc(C(F)(F)F)cc(O)c1-c1cc2c(nn1)N([C@@H]1CCCN(C(C)C)C1)CC2 [Example 15, 3-methyl-2-{7-[(3R)-1-(propan-2-yl)piperidin-3-yl]-6,7-dihydro-5H-pyrrolo[2,3-c]pyridazin-3-yl}-5-(trifluoromethyl)phenol]
[1]
  IC50: 4.86 nM

## Cc1cc(OC(F)F)cc(O)c1-c1cc2c3c(n([C@H]4C[C@@](C)(O)C4)c2nn1)CCC3 [Example 80, 5-(difluoromethoxy)-2-{8-[(1s,3s)-3-hydroxy-3-methylcyclobutyl]-5,6,7,8-tetrahydrocyclopenta[4,5]pyrrolo[2,3-c]pyridazin-3-yl}-3-methylphenol]
[1]
  IC50: 22.4 nM

## Cc1cc2c(c(O)c1-c1cc3c(C)cn([C@H]4C[C@@](C)(O)C4)c3nn1)CCC2 [Example 43, 5-{7-[(1s,3s)-3-hydroxy-3-methylcyclobutyl]-5-methyl-7H-pyrrolo[2,3-c]pyridazin-3-yl}-6-methyl-2,3-dihydro-1H-inden-4-ol]
[1]
  IC50: 22.1 nM

## Cc1cc(C(F)(F)F)cc(O)c1-c1cc2c(C)cn([C@@H]3CCC[C@@H](O)C3)c2nn1 [Example 54, 2-{7-[(1R,3R)-3-hydroxycyclohexyl]-5-methyl-7H-pyrrolo[2,3-c]pyridazin-3-yl}-3-methyl-5-(trifluoromethyl)phenol]
[1]
  IC50: 84.3 nM

— patent US20260226065A1, “SUBSTITUTED BENZENE COMPOUND” (DAIICHI SANKYO COMPANY, LIMITED, priority 2023, published 2026)
